# Assay results taken from paper PMC4143179 (Journal of Natural Products, 2014).
# Key:
# MDCK-MDR1 cells = settings: transport with versus without verapamil
# [1] = system: MCF7 breast cancer cell line; assay: Antiproliferation assay; assay type: cell-based
# [2] = intravenous or inhaled administration; cited from earlier work
# P-glycoprotein (P-gp) = settings: cited from earlier work
Compound,efflux by P-gp (in words) (MDCK-MDR1 cells),antiproliferative effects (in words) [1],time to cross the blood–brain barrier [2],P-glycoprotein substrate (in words) (P-glycoprotein (P-gp))
"COC(=O)[C@@H]1C[C@H](OC(C)=O)C(=O)[C@H]2[C@@]1(C)CC[C@H]1C(=O)O[C@H](CC3=CC(=O)C(OC)=CC3=O)C[C@]21C [Compound 15, (2S,4aR,6aR,7R,9S,10aS,10bR)-Methyl 9-Acetoxy-2-[(4-methoxy-3,6-dioxocyclohexa-1,4-dien-1-yl)methyl]-6a,10b-dimethyl-4,10-dioxododecahydro-1H-benzo[f]isochromene-7-carboxylate]",actively effluxed by P-gp,–,–,–
COc1cc2nc(N3CCN(C(=O)c4ccco4)CC3)nc(N)c2cc1OC [prazosin],actively effluxed by P-gp,–,–,–
Cn1c(=O)c2c(ncn2C)n(C)c1=O [caffeine],limited efflux by P-gp,–,–,–
"COC(=O)[C@@H]1C[C@H](OC(C)=O)C(=O)[C@H]2[C@@]1(C)CC[C@H]1C(=O)O[C@H](c3ccoc3)C[C@]21C [Salvinorin A, salvinorin A]",actively effluxed by P-gp,did not show any detectable antiproliferative effects,≤ 1 min,substrate for P-glycoprotein
"COC(=O)[C@@H]1C[C@H](OC(C)=O)C(=O)[C@H]2[C@@]1(C)CC[C@H]1C(=O)O[C@H](CC3=CC(=O)C(OC)=C(OC)C3=O)C[C@]21C [Compound 14, (2S,4aR,6aR,7R,9S,10aS,10bR)-Methyl 9-Acetoxy-2-[(4,5-dimethoxy-3,6-dioxocyclohexa-1,4-dien-1-yl)methyl]-6a,10b-dimethyl-4,10-dioxododecahydro-1H-benzo[f]isochromene-7-carboxylate]",actively effluxed by P-gp,–,–,–
